# Measured values taken from the NIST ThermoML archive (doi:10.1016/j.jct.2015.12.017).
# Numbers after ± are expanded uncertainties.
# Assay: molar heat capacity at constant pressure
# Details: 101.33 kPa
compound,measurement,setting,value
O=P([O-])([O-])[O-].[Co+2].[Cs+] [cesium cobalt(II) phosphate],molar heat capacity at constant pressure,"304.98 K, Crystal 4, Vacuum adiabatic calorimetry",136.11 ± 0.5 J/K/mol
same,molar heat capacity at constant pressure,"305.47 K, Crystal 4, Vacuum adiabatic calorimetry",136.19 ± 0.5 J/K/mol
same,molar heat capacity at constant pressure,"306.97 K, Crystal 4, Vacuum adiabatic calorimetry",137.44 ± 0.5 J/K/mol
same,molar heat capacity at constant pressure,"307.51 K, Crystal 4, Vacuum adiabatic calorimetry",137.6 ± 0.5 J/K/mol
same,molar heat capacity at constant pressure,"308.95 K, Crystal 4, Vacuum adiabatic calorimetry",138.69 ± 0.5 J/K/mol
same,molar heat capacity at constant pressure,"309.32 K, Crystal 4, Vacuum adiabatic calorimetry",139.1 ± 0.5 J/K/mol
same,molar heat capacity at constant pressure,"310 K, Crystal 4, Vacuum adiabatic calorimetry",136.94 ± 0.5 J/K/mol
same,molar heat capacity at constant pressure,"310.91 K, Crystal 4, Vacuum adiabatic calorimetry",142.43 ± 0.5 J/K/mol
same,molar heat capacity at constant pressure,"311.46 K, Crystal 4, Vacuum adiabatic calorimetry",142.34 ± 0.5 J/K/mol
same,molar heat capacity at constant pressure,"312.84 K, Crystal 4, Vacuum adiabatic calorimetry",144.42 ± 0.5 J/K/mol
same,molar heat capacity at constant pressure,"313.4 K, Crystal 3, Vacuum adiabatic calorimetry",139.93 ± 0.5 J/K/mol
same,molar heat capacity at constant pressure,"313.4 K, Crystal 4, Vacuum adiabatic calorimetry",137.85 ± 0.5 J/K/mol
same,molar heat capacity at constant pressure,"313.44 K, Crystal 3, Vacuum adiabatic calorimetry",144.34 ± 0.5 J/K/mol
same,molar heat capacity at constant pressure,"314.77 K, Crystal 3, Vacuum adiabatic calorimetry",143.84 ± 0.5 J/K/mol
same,molar heat capacity at constant pressure,"315.42 K, Crystal 3, Vacuum adiabatic calorimetry",144.09 ± 0.5 J/K/mol
same,molar heat capacity at constant pressure,"316.69 K, Crystal 3, Vacuum adiabatic calorimetry",142.51 ± 0.5 J/K/mol
same,molar heat capacity at constant pressure,"317.39 K, Crystal 3, Vacuum adiabatic calorimetry",143.18 ± 0.5 J/K/mol
same,molar heat capacity at constant pressure,"318.6 K, Crystal 3, Vacuum adiabatic calorimetry",141.68 ± 0.5 J/K/mol
same,molar heat capacity at constant pressure,"319.35 K, Crystal 3, Vacuum adiabatic calorimetry",142.51 ± 0.5 J/K/mol
same,molar heat capacity at constant pressure,"320 K, Crystal 3, Vacuum adiabatic calorimetry",142.34 ± 0.5 J/K/mol
same,molar heat capacity at constant pressure,"320.51 K, Crystal 3, Vacuum adiabatic calorimetry",142.01 ± 0.5 J/K/mol
same,molar heat capacity at constant pressure,"321.31 K, Crystal 3, Vacuum adiabatic calorimetry",142.84 ± 0.5 J/K/mol
same,molar heat capacity at constant pressure,"322.4 K, Crystal 3, Vacuum adiabatic calorimetry",142.76 ± 0.5 J/K/mol
same,molar heat capacity at constant pressure,"323.26 K, Crystal 3, Vacuum adiabatic calorimetry",143.42 ± 0.5 J/K/mol
same,molar heat capacity at constant pressure,"324.27 K, Crystal 3, Vacuum adiabatic calorimetry",143.42 ± 0.5 J/K/mol
same,molar heat capacity at constant pressure,"325.2 K, Crystal 3, Vacuum adiabatic calorimetry",144.09 ± 0.5 J/K/mol
same,molar heat capacity at constant pressure,"326.14 K, Crystal 3, Vacuum adiabatic calorimetry",144.09 ± 0.5 J/K/mol
same,molar heat capacity at constant pressure,"327.14 K, Crystal 3, Vacuum adiabatic calorimetry",144.59 ± 0.5 J/K/mol
same,molar heat capacity at constant pressure,"327.98 K, Crystal 3, Vacuum adiabatic calorimetry",144.75 ± 0.5 J/K/mol
same,molar heat capacity at constant pressure,"329.07 K, Crystal 3, Vacuum adiabatic calorimetry",145.09 ± 0.5 J/K/mol
same,molar heat capacity at constant pressure,"330 K, Crystal 3, Vacuum adiabatic calorimetry",145.34 ± 0.5 J/K/mol
same,molar heat capacity at constant pressure,"330.98 K, Crystal 3, Vacuum adiabatic calorimetry",145.59 ± 0.5 J/K/mol
same,molar heat capacity at constant pressure,"332.87 K, Crystal 3, Vacuum adiabatic calorimetry",146 ± 0.5 J/K/mol
same,molar heat capacity at constant pressure,"334.4 K, Crystal 3, Small sample (50 mg) DSC",146.33 ± 4.2 J/K/mol
same,molar heat capacity at constant pressure,"334.77 K, Crystal 3, Vacuum adiabatic calorimetry",146.58 ± 0.5 J/K/mol
same,molar heat capacity at constant pressure,"336.65 K, Crystal 3, Vacuum adiabatic calorimetry",147.08 ± 0.5 J/K/mol
same,molar heat capacity at constant pressure,"336.9 K, Crystal 3, Small sample (50 mg) DSC",147.17 ± 4.2 J/K/mol
same,molar heat capacity at constant pressure,"338.52 K, Crystal 3, Vacuum adiabatic calorimetry",147.5 ± 0.5 J/K/mol
same,molar heat capacity at constant pressure,"339.4 K, Crystal 3, Small sample (50 mg) DSC",148 ± 4.2 J/K/mol
same,molar heat capacity at constant pressure,"340 K, Crystal 3, Vacuum adiabatic calorimetry",147.91 ± 0.5 J/K/mol
same,molar heat capacity at constant pressure,"340.21 K, Crystal 3, Vacuum adiabatic calorimetry",148 ± 0.5 J/K/mol
same,molar heat capacity at constant pressure,"341.82 K, Crystal 3, Vacuum adiabatic calorimetry",148.41 ± 0.5 J/K/mol
same,molar heat capacity at constant pressure,"341.9 K, Crystal 3, Small sample (50 mg) DSC",148 ± 4.2 J/K/mol
same,molar heat capacity at constant pressure,"343.88 K, Crystal 3, Vacuum adiabatic calorimetry",149.08 ± 0.5 J/K/mol
same,molar heat capacity at constant pressure,"344.4 K, Crystal 3, Small sample (50 mg) DSC",148.83 ± 4.2 J/K/mol
same,molar heat capacity at constant pressure,"345.68 K, Crystal 3, Vacuum adiabatic calorimetry",149.58 ± 0.5 J/K/mol
same,molar heat capacity at constant pressure,"346.9 K, Crystal 3, Small sample (50 mg) DSC",149.66 ± 4.2 J/K/mol
same,molar heat capacity at constant pressure,"347.49 K, Crystal 3, Vacuum adiabatic calorimetry",150.08 ± 0.5 J/K/mol
same,molar heat capacity at constant pressure,"349.26 K, Crystal 3, Vacuum adiabatic calorimetry",150.49 ± 0.5 J/K/mol
same,molar heat capacity at constant pressure,"349.4 K, Crystal 3, Small sample (50 mg) DSC",150.49 ± 4.2 J/K/mol
same,molar heat capacity at constant pressure,"350 K, Crystal 3, Small sample (50 mg) DSC",150.41 ± 4.3 J/K/mol
same,molar heat capacity at constant pressure,"351.9 K, Crystal 3, Small sample (50 mg) DSC",151.32 ± 4.2 J/K/mol
same,molar heat capacity at constant pressure,"354.4 K, Crystal 3, Small sample (50 mg) DSC",151.32 ± 4.2 J/K/mol
same,molar heat capacity at constant pressure,"356.9 K, Crystal 3, Small sample (50 mg) DSC",152.15 ± 4.2 J/K/mol
same,molar heat capacity at constant pressure,"359.4 K, Crystal 3, Small sample (50 mg) DSC",152.99 ± 4.2 J/K/mol
same,molar heat capacity at constant pressure,"360 K, Crystal 3, Small sample (50 mg) DSC",152.74 ± 4.4 J/K/mol
same,molar heat capacity at constant pressure,"361.9 K, Crystal 3, Small sample (50 mg) DSC",152.99 ± 4.2 J/K/mol
same,molar heat capacity at constant pressure,"364.4 K, Crystal 3, Small sample (50 mg) DSC",152.99 ± 4.2 J/K/mol
same,molar heat capacity at constant pressure,"366.9 K, Crystal 3, Small sample (50 mg) DSC",153.82 ± 4.2 J/K/mol
same,molar heat capacity at constant pressure,"369.4 K, Crystal 3, Small sample (50 mg) DSC",154.65 ± 4.2 J/K/mol
same,molar heat capacity at constant pressure,"370 K, Crystal 3, Small sample (50 mg) DSC",154.82 ± 4.4 J/K/mol
same,molar heat capacity at constant pressure,"371.9 K, Crystal 3, Small sample (50 mg) DSC",155.48 ± 4.2 J/K/mol
same,molar heat capacity at constant pressure,"374.4 K, Crystal 3, Small sample (50 mg) DSC",155.48 ± 4.2 J/K/mol
same,molar heat capacity at constant pressure,"376.9 K, Crystal 3, Small sample (50 mg) DSC",156.31 ± 4.2 J/K/mol
same,molar heat capacity at constant pressure,"379.4 K, Crystal 3, Small sample (50 mg) DSC",156.31 ± 4.2 J/K/mol
same,molar heat capacity at constant pressure,"380 K, Crystal 3, Small sample (50 mg) DSC",156.73 ± 4.5 J/K/mol
same,molar heat capacity at constant pressure,"381.9 K, Crystal 3, Small sample (50 mg) DSC",157.14 ± 4.2 J/K/mol
same,molar heat capacity at constant pressure,"384.4 K, Crystal 3, Small sample (50 mg) DSC",157.14 ± 4.2 J/K/mol
same,molar heat capacity at constant pressure,"386.9 K, Crystal 3, Small sample (50 mg) DSC",157.97 ± 4.2 J/K/mol
same,molar heat capacity at constant pressure,"389.4 K, Crystal 3, Small sample (50 mg) DSC",157.97 ± 4.2 J/K/mol
same,molar heat capacity at constant pressure,"390 K, Crystal 3, Small sample (50 mg) DSC",158.47 ± 4.6 J/K/mol
same,molar heat capacity at constant pressure,"391.9 K, Crystal 3, Small sample (50 mg) DSC",158.81 ± 5 J/K/mol
same,molar heat capacity at constant pressure,"394.4 K, Crystal 3, Small sample (50 mg) DSC",159.64 ± 5 J/K/mol
same,molar heat capacity at constant pressure,"396.9 K, Crystal 3, Small sample (50 mg) DSC",159.64 ± 5 J/K/mol
same,molar heat capacity at constant pressure,"399.4 K, Crystal 3, Small sample (50 mg) DSC",160.47 ± 5 J/K/mol
same,molar heat capacity at constant pressure,"400 K, Crystal 3, Small sample (50 mg) DSC",160.14 ± 4.6 J/K/mol
same,molar heat capacity at constant pressure,"401.9 K, Crystal 3, Small sample (50 mg) DSC",160.47 ± 5 J/K/mol
same,molar heat capacity at constant pressure,"404.4 K, Crystal 3, Small sample (50 mg) DSC",161.3 ± 5 J/K/mol
same,molar heat capacity at constant pressure,"406.9 K, Crystal 3, Small sample (50 mg) DSC",161.3 ± 5 J/K/mol
same,molar heat capacity at constant pressure,"409.4 K, Crystal 3, Small sample (50 mg) DSC",161.3 ± 5 J/K/mol
same,molar heat capacity at constant pressure,"410 K, Crystal 3, Small sample (50 mg) DSC",161.72 ± 4.7 J/K/mol
same,molar heat capacity at constant pressure,"411.9 K, Crystal 3, Small sample (50 mg) DSC",162.13 ± 5 J/K/mol
same,molar heat capacity at constant pressure,"414.4 K, Crystal 3, Small sample (50 mg) DSC",162.13 ± 5 J/K/mol
same,molar heat capacity at constant pressure,"416.9 K, Crystal 3, Small sample (50 mg) DSC",162.96 ± 5 J/K/mol
same,molar heat capacity at constant pressure,"419.4 K, Crystal 3, Small sample (50 mg) DSC",162.96 ± 5 J/K/mol
same,molar heat capacity at constant pressure,"420 K, Crystal 3, Small sample (50 mg) DSC",163.13 ± 4.7 J/K/mol
same,molar heat capacity at constant pressure,"421.9 K, Crystal 3, Small sample (50 mg) DSC",162.96 ± 5 J/K/mol
same,molar heat capacity at constant pressure,"424.4 K, Crystal 3, Small sample (50 mg) DSC",163.8 ± 5 J/K/mol
same,molar heat capacity at constant pressure,"426.9 K, Crystal 3, Small sample (50 mg) DSC",163.8 ± 5 J/K/mol
same,molar heat capacity at constant pressure,"429.4 K, Crystal 3, Small sample (50 mg) DSC",164.63 ± 5 J/K/mol
same,molar heat capacity at constant pressure,"430 K, Crystal 3, Small sample (50 mg) DSC",164.54 ± 4.7 J/K/mol
same,molar heat capacity at constant pressure,"431.9 K, Crystal 3, Small sample (50 mg) DSC",164.63 ± 5 J/K/mol
same,molar heat capacity at constant pressure,"434.4 K, Crystal 3, Small sample (50 mg) DSC",165.46 ± 5 J/K/mol
same,molar heat capacity at constant pressure,"436.9 K, Crystal 3, Small sample (50 mg) DSC",165.46 ± 5 J/K/mol
same,molar heat capacity at constant pressure,"439.4 K, Crystal 3, Small sample (50 mg) DSC",166.29 ± 5 J/K/mol
same,molar heat capacity at constant pressure,"440 K, Crystal 3, Small sample (50 mg) DSC",165.96 ± 4.7 J/K/mol
same,molar heat capacity at constant pressure,"441.9 K, Crystal 3, Small sample (50 mg) DSC",166.29 ± 5 J/K/mol
same,molar heat capacity at constant pressure,"444.4 K, Crystal 3, Small sample (50 mg) DSC",167.12 ± 5 J/K/mol
same,molar heat capacity at constant pressure,"446.9 K, Crystal 3, Small sample (50 mg) DSC",167.12 ± 5 J/K/mol
same,molar heat capacity at constant pressure,"449.4 K, Crystal 3, Small sample (50 mg) DSC",167.12 ± 5 J/K/mol
same,molar heat capacity at constant pressure,"450 K, Crystal 3, Small sample (50 mg) DSC",167.45 ± 4.8 J/K/mol
